Results: patent US5594157A, “Process for making taxol derivatives” (Abbott Laboratories, priority 1995, dated 1997)
≈ marks a conversion by molar mass, not a printed value. Where two headings read alike, the source gives them in different places.

Tests used:
A549 = assay: In vitro tumor cell cytotoxicity, three day MTT microtiter assay (A549); assay type: cell-based, human; conditions: for IC50: Homo sapiens, read-out: In vitro tumor cell cytotoxicity (IC50)
Procedure: (§1) A three day microtiter assay was used to measure the growth inhibition of cultured cells exposed to a range of drug concentrations. Metabolic activity was measured by the cells' ability to reduce the tetrazolium dye, MTT (3-(4,5-dimethylthiazol-2-yl-2,5-diphenyltetrazolium bromide) to a quantifiable colored end product, which absorbs at 570 nm in the visible spectrum. Surviving cells reduce the MTT dye.
(§2) Test compounds were dissolved in dimethyl sulfoxide (DMSO) and diluted, first with Earle's Balanced Salt Solution, followed by culture medium, to twice the highest concentration of compound to be tested. From this concentrated stock, two-fold serial dilutions were prepared in 96-well microtiter trays, each well containing twice the desired final concentration of compound. Each concentration was tested in triplicate and compared to triplicate drug-free controls.
(§3) The cells were grown in the same medium used for diluting the compounds and then harvested using trypsinization. This involved removing the medium by aspiration; rinsing the cell monolayer twice with Earle's Balanced Salt Solution; adding trypsin (0.05%)/EDTA (0.53 mM; for each 25 cm^2, approximately 0.2 mL), tilting to cover the monolayer, and then withdrawing trypsin leaving only a thin film of solution; incubating at room temperature until the cell monolayers detached (as determined by visual and/or microscopic observation); adding medium contaiing fetal calf serum to stop the action of the trypsin and resuspend the cells; triturating to aid dissociation of cell clumps; and determining the number of cells per milliliter by electronic cell counter (e.g. Coulter Counter) or by mixing an aliquot of cell suspension with Trypan Blue (0.4% in normal saline) and counting the viable cells using a hemacytometer.
(§4) After harvesting and determination of viable cell counts, cell density was adjusted to 25,000 cells/mL. Inoculum (0.1 mL) containing the cells was then added to each well for a final concentration of 2,500 cells per well. Addition of the inoculum diluted the test compounds to the desired final concentration.
(§5) Microtiter trays were then incubated for three days at 36° C. in a humidified atmosphere containing 5% carbon dioxide. After three days, 20 microtiters of 5 mg/mL MTT in phosphate-buffered saline solution were added to each well. Trays were returned to the incubator for two to four hours to allow the surviving cells to reduce the dye. Medium and unreduced dye were removed by aspiration. DMSO was added to each well to dissolve the water-insoluble, colored end product of the dye reduction so that it could be measured spectrophotometrically at 570 nm.

P-388 = assay: In vitro tumor cell cytotoxicity, three day MTT microtiter assay (P-388); assay type: cell-based, mouse; conditions: for IC50: P388, 72 h, read-out: In vitro tumor cell cytotoxicity (IC50)
Procedure: as §1, §2, §3, §4, §5

[1] = 72 h, A549, 3 days, MTT, absorbance at 570 nm
[2] = P-388 (mouse leukemia), 3 days, MTT, absorbance at 570 nm

| Compound | IC50 (A549; [1]) | IC50 (P-388; [2]) | IC50 (A549; A549, 72 h) | IC50 (P-388; Mus musculus) | other results |
| --- | --- | --- | --- | --- | --- |
| CC(=O)O[C@@H]1C2=C(C)[C@@H](OC(=O)[C@H](O)[C@@H](NC(=O)OC(C)(C)C)c3ccccc3)C[C@@](O)([C@@H](OC(=O)c3ccccc3)[C@@H]3[C@]4(OC(C)=O)CO[C@@H]4C[C@H](O)[C@@]3(C)[C@H]1O)C2(C)C [Example 20, N-Debenzoyl-N-t-butoxycarbonyl-9-dihydrotaxol] | 0.0003 µg/mL (≈ 0.000352 µM) | 0.0025 µg/mL (≈ 0.00293 µM) | – | – | – |
| CC(=O)O[C@@]12CO[C@@H]1C[C@H](O)[C@]1(C)[C@@H]2[C@H](OC(=O)c2ccccc2)[C@]2(O)C[C@H](OC(=O)[C@H](O)[C@@H](NC(=O)c3ccccc3)c3ccccc3)C(C)=C([C@@H](O)[C@@H]1O)C2(C)C [Example 9, 10-Deacetyl-9-dihydrotaxol] | – | – | – | – | In vitro tumor cell cytotoxicity (IC50) (A549; A549, 3 days, MTT, absorbance at 570 nm): 0.011 µg/mL; In vitro tumor cell cytotoxicity (IC50) (P-388; [2]): 0.14 µg/mL |
| CC(=O)O[C@@H]1C2=C(C)[C@@H](OC(=O)[C@H](O)[C@@H](NC(=O)c3ccccc3)c3ccccc3)C[C@@](O)([C@@H](OC(=O)c3ccccc3)[C@@H]3[C@]4(OC(C)=O)CO[C@@H]4C[C@H](O)[C@@]3(C)[C@H]1O)C2(C)C [Example 8, 9-Dihydrotaxol] | – | – | 0.016 µg/mL (≈ 0.0187 µM) | 0.049 µg/mL (≈ 0.0572 µM) | – |
| CC(=O)N[C@@H](c1ccccc1)[C@@H](O)C(=O)O[C@H]1C[C@@]2(O)[C@@H](OC(=O)c3ccccc3)[C@@H]3[C@]4(OC(C)=O)CO[C@@H]4C[C@H](O)[C@@]3(C)[C@@H](O)[C@H](OC(C)=O)C(=C1C)C2(C)C [Example 29, N-Debenzoyl-N-acetyl-9-dihydrotaxol] | 2.1 µg/mL (≈ 2.65 µM) | 2.02 µg/mL (≈ 2.54 µM) | – | – | – |
| CCN(CC)CCO[C@H]1C[C@H]2OC[C@@]2(OC(C)=O)[C@H]2[C@H](OC(=O)c3ccccc3)[C@]3(O)C[C@H](OC(=O)[C@H](O)[C@@H](NC(=O)c4ccccc4)c4ccccc4)C(C)=C([C@@H](OC(C)=O)[C@H](O)[C@]12C)C3(C)C [Example 17] | – | – | 0.4 µg/mL (≈ 0.419 µM) | 0.31 µg/mL (≈ 0.325 µM) | – |
| CC(=O)O[C@@H]1C2=C(C)[C@@H](OC(=O)[C@H](O)[C@@H](NC(=O)c3ccccc3)c3ccccc3)C[C@@](O)([C@@H](OC(=O)c3ccccc3)[C@@H]3[C@]4(OC(C)=O)CO[C@@H]4C[C@H](OCC(O)CO)[C@@]3(C)[C@H]1O)C2(C)C (some centres unmarked) [Example 16, 9-dihydrotaxol 7-O-(2,3-dihydroxypropyl) ether] | 0.626 µg/mL (≈ 0.673 µM) | > 1 µg/mL | – | – | – |
| CC(=O)O[C@@H]1C2=C(C)[C@@H](OC(=O)[C@H](O)[C@@H](NC(=O)CC(C)(C)C)c3ccccc3)C[C@@](O)([C@@H](OC(=O)c3ccccc3)[C@@H]3[C@]4(OC(C)=O)CO[C@@H]4C[C@H](O)[C@@]3(C)[C@H]1O)C2(C)C [Example 22, N-Debenzoyl-N-t-butylacetyl-9-dihydrotaxol] | 0.027 µg/mL (≈ 0.0318 µM) | 0.052 µg/mL (≈ 0.0612 µM) | – | – | – |
| CC(=O)O[C@@H]1C2=C(C)[C@@H](OC(=O)[C@H](O)[C@@H](NC(=O)OCC(C)C)c3ccccc3)C[C@@](O)([C@@H](OC(=O)c3ccccc3)[C@@H]3[C@]4(OC(C)=O)CO[C@@H]4C[C@H](O)[C@@]3(C)[C@H]1O)C2(C)C [Example 23, N-Debenzoyl-N-isobutoxycarbonyl-9-dihydrotaxol] | – | – | 0.0043 µg/mL (≈ 0.00505 µM) | 0.028 µg/mL (≈ 0.0329 µM) | – |
| CC(=O)O[C@@H]1C2=C(C)[C@@H](OC(=O)[C@H](O)[C@@H](NC(=O)C(C)(C)C)c3ccccc3)C[C@@](O)([C@@H](OC(=O)c3ccccc3)[C@@H]3[C@]4(OC(C)=O)CO[C@@H]4C[C@H](O)[C@@]3(C)[C@H]1O)C2(C)C [Example 28, N-Debenzoyl-N-pivaloyl-9-dihydrotaxol] | 0.11 µg/mL (≈ 0.132 µM) | 0.083 µg/mL (≈ 0.0993 µM) | – | – | – |
| CC(=O)O[C@@H]1C2=C(C)[C@@H](OC(=O)[C@H](O)[C@@H](NC(=O)c3ccccc3)c3ccccc3)C[C@@](O)([C@@H](OC(=O)c3ccccc3)[C@@H]3[C@]4(OC(C)=O)CO[C@@H]4C[C@@H]4OC(c5ccccc5)O[C@@H]1[C@]43C)C2(C)C (some centres unmarked) [Example 12, 9-Dihydrotaxol-7,9-benzylidene acetal] | 1 µg/mL (≈ 1.06 µM) | 1 µg/mL (≈ 1.06 µM) | – | – | – |
| CC(=O)O[C@@H]1C2=C(C)[C@@H](OC(=O)[C@H](O)[C@@H](NC(=O)c3ccccc3)c3ccccc3)C[C@@](O)([C@@H](OC(=O)c3ccccc3)[C@@H]3[C@]4(OC(C)=O)CO[C@@H]4C[C@@H]4OC(C)(C)O[C@@H]1[C@]43C)C2(C)C [Example 10, 9-Dihydrotaxol-7,9-isopropylidene ketal] | – | – | 0.025 µg/mL (≈ 0.0279 µM) | 0.042 µg/mL (≈ 0.0469 µM) | – |
| CC(=O)O[C@@]12CO[C@@H]1C[C@H](O)[C@]1(C)[C@@H]2[C@H](OC(=O)c2ccccc2)[C@]2(O)C[C@H](OC(=O)[C@H](O)[C@@H](NC(=O)OC(C)(C)C)c3ccccc3)C(C)=C([C@@H](O)[C@@H]1O)C2(C)C [Example 21, 10-Deacetyl-N-debenzoyl-N-t-butoxycarbonyl-9-dihydrotaxol] | 0.00026 µg/mL (≈ 0.000321 µM) | 0.0028 µg/mL (≈ 0.00346 µM) | – | – | – |
| CC(=O)O[C@@H]1C2=C(C)[C@@H](OC(=O)[C@H](O)[C@@H](NC(=O)c3ccccc3)c3ccccc3)C[C@@](O)([C@@H](OC(=O)c3ccccc3)[C@@H]3[C@]4(OC(C)=O)CO[C@@H]4C[C@@H]4OC(=S)O[C@@H]1[C@]43C)C2(C)C [Example 14, 9-Dihydrotaxol-7,9-thionocarbonate] | – | – | 0.019 µg/mL (≈ 0.0212 µM) | 0.035 µg/mL (≈ 0.039 µM) | – |
| CC(=O)O[C@@H]1C2=C(C)[C@@H](OC(=O)[C@H](O)[C@@H](NC(=O)c3ccccc3)c3ccccc3)C[C@@](O)([C@@H](OC(=O)c3ccccc3)[C@@H]3[C@]4(OC(C)=O)CO[C@@H]4C[C@H](OCCO)[C@@]3(C)[C@H]1O)C2(C)C [Example 18, 9-Dihydrotaxol 7-O-(2-Hydroxyethyl) ether] | 0.039 µg/mL (≈ 0.0433 µM) | 0.17 µg/mL (≈ 0.189 µM) | – | – | – |
| CC(=O)O[C@@H]1C2=C(C)[C@@H](OC(=O)[C@H](O)[C@@H](NC(=O)OCc3ccccc3)c3ccccc3)C[C@@](O)([C@@H](OC(=O)c3ccccc3)[C@@H]3[C@]4(OC(C)=O)CO[C@@H]4C[C@H](O)[C@@]3(C)[C@H]1O)C2(C)C [Example 26, N-Debenzoyl-N-benzyloxycarbonyl-9-dihydrotaxol] | – | – | 0.031 µg/mL (≈ 0.035 µM) | 0.057 µg/mL (≈ 0.0643 µM) | – |
| CC(=O)O[C@@H]1C2=C(C)[C@@H](OC(=O)[C@H](O)[C@@H](NC(=O)NC(C)(C)C)c3ccccc3)C[C@@](O)([C@@H](OC(=O)c3ccccc3)[C@@H]3[C@]4(OC(C)=O)CO[C@@H]4C[C@H](O)[C@@]3(C)[C@H]1O)C2(C)C [Example 30, N-Debenzoyl-N-t-butylcarbamyl-9-dihydrotaxol] | – | – | 0.014 µg/mL (≈ 0.0165 µM) | 0.017 µg/mL (≈ 0.02 µM) | – |
| CC(=O)O[C@@H]1C2=C(C)[C@@H](OC(=O)[C@H](O)[C@@H](NC(=O)OC34CC5CC(CC(C5)C3)C4)c3ccccc3)C[C@@](O)([C@@H](OC(=O)c3ccccc3)[C@@H]3[C@]4(OC(C)=O)CO[C@@H]4C[C@H](O)[C@@]3(C)[C@H]1O)C2(C)C [Example 24, N-Debenzoyl-N-adamantoxycarbonyl-9-dihydrotaxol] | – | – | 0.0043 µg/mL (≈ 0.00462 µM) | 0.01 µg/mL (≈ 0.0108 µM) | – |
| CC(=O)O[C@@H]1C2=C(C)[C@@H](OC(=O)[C@H](O)[C@@H](NC(=O)OC(C)C)c3ccccc3)C[C@@](O)([C@@H](OC(=O)c3ccccc3)[C@@H]3[C@]4(OC(C)=O)CO[C@@H]4C[C@H](O)[C@@]3(C)[C@H]1O)C2(C)C [Example 25, N-Debenzoyl-N-isopropoxycarbonyl-9-dihydrotaxol] | 0.0012 µg/mL (≈ 0.00143 µM) | 0.0092 µg/mL (≈ 0.011 µM) | – | – | – |
| CCC1O[C@H]2C[C@H]3OC[C@@]3(OC(C)=O)[C@H]3[C@H](OC(=O)c4ccccc4)[C@]4(O)C[C@H](OC(=O)[C@H](O)[C@@H](NC(=O)c5ccccc5)c5ccccc5)C(C)=C([C@@H](OC(C)=O)[C@H](O1)[C@]23C)C4(C)C (some centres unmarked) [Example 11, 9-Dihydrotaxol-7,9-propylidene acetal] | – | – | 0.023 µg/mL (≈ 0.0257 µM) | 0.022 µg/mL (≈ 0.0246 µM) | – |
